Measurements taken from patent publication US20250325717A1, “ANTI-NUCLEOPHOSMIN 1 ANTIBODY AND ANTIBODY CONJUGATE COMBINATION THERAPIES” (The Children's Medical Center Corporation, priority 2022, published 2025).

Key:
OCI-AML3 cells = test: Low dose chemotherapeutics: induction of cell surface NPM1 on OCI-AML3 cells; assay type: cell-based, human; conditions: daunorubicin 10 nanomolar (nm), venetoclax 40 nm; for NPM1 on the cell surface: 48 hrs
Experimental: To determine whether low doses of chemotherapeutic agents, daunorubicin and venetoclax, induce cell surface NPM1, OCI-AML3 cells were exposed to either control or a low dose of a chemotherapeutic treatment. OCI-AML3 cells are resistant to BLC2i. Daunorubicin was administered at 10 nanomolar (nm) and venetoclax was administered at 40 nm. Administration of daunorubicin increased NPM1 on the cell surface at 48 hrs and maintained higher expression for at least 9 days. Administration of venetoclax and separately 5-Aza increased NPM1 at 48 hrs and maintained higher expression for at least 7 days (FIG. 32).

[1] = tested on: NPM1 on the surface of OCI-AML3 cells; test: Effect of chemotherapeutics on anti-NPM1 antibody binding to OCI-AML3 cell surface; assay type: cell-based, human
[2] = tested on: normal myeloid progenitor line HOXB8; test: Low dose chemotherapeutics: cell surface NPM1 on non-transformed HOXB8 cells; assay type: cell-based; conditions: daunorubicin 10 nM, venetoclax 40 nM, 48 and 72 hours
Experimental: (§1) The ability of low doses of chemotherapeutic agents, daunorubicin and venetoclax, to induce cell surface NPM1 on non-transformed cells was tested. Normal hematopoietic precursor cell line HPC7 and normal myeloid progenitor line HOXB8 were exposed to either control or a low dose of a chemotherapeutic treatment. Doses of daunorubicin and venetoclax were administered at 10 nanomolar (nM) and 40 nM, respectively. The results of the antibody binding measured by flow cytometry show no change in the low dose chemotherapeutic compared to controls (FIG. 33).

[3] = tested on: Normal hematopoietic precursor cell line HPC7; test: Low dose chemotherapeutics: cell surface NPM1 on non-transformed HPC7 cells; assay type: cell-based; conditions: daunorubicin 10 nM, venetoclax 40 nM, 48 and 72 hours
Experimental: as §1

murine NPM1 = target: T1, murine NPM1 (murine, UniProt Q61937 1-292); test: FACS, primary murine MLL-r AML cells
T1 construct: also called NPM1 on primary murine MLL-rearranged (MLL-r) AML cells; NPM1 on MLL-AF9/Flt3-ITD AML cells

[4] = target: T2, human nucleophosmin 1 (NPM1) (human, UniProt P06748 1-294); test: FACS, human AML PDX cells (PDX-1, PDX-3, PDX-4)
T2 construct: In the blots it is NPM1 from lysates or membrane fractions, not on cells; also called WT NPM1; wild-type NPM1

[5] = tested on: host murine bone marrow cells; test: FACS binding to host murine bone marrow cells of PDX mice; assay type: cell-based; conditions: host bone marrow of PDX mouse model
Description: (§2) Given that a variety of murine and human leukemia cell lines express cell surface WT and/or mutant NPM1, it was subsequently assessed whether the isolated antibodies could also bind to the surface of these cells. […] These antibodies could further be used in other applications, including, for example, diagnostic agents by instead conjugating the antibodies with an imaging agent, which can in turn be used to locate and measure the relative abundance of cancer cells in a patient.

[6] = tested on: surface localized NPM1 on primary murine NPM1c AML cells; test: FACS binding to primary murine NPM1c AML cells; assay type: cell-based
Description: as §2

[7] = tested on: NPM1 on human patient derived xenograft (PDX) cells; test: FACS binding to human PDX cells transplanted into a mouse model; assay type: cell-based
Description: as §2

[8] = target: T3, surface localized NPM1 on primary murine MLL-rearranged AML cells (Mus musculus, UniProt Q61937); test: FACS binding to primary murine MLL-rearranged AML cells; assay type: cell-based
T3 construct: endogenous in cells; host or cells: primary murine MLL-rearranged AML cells
Description: as §2

T2 sequence (P06748 whole entry): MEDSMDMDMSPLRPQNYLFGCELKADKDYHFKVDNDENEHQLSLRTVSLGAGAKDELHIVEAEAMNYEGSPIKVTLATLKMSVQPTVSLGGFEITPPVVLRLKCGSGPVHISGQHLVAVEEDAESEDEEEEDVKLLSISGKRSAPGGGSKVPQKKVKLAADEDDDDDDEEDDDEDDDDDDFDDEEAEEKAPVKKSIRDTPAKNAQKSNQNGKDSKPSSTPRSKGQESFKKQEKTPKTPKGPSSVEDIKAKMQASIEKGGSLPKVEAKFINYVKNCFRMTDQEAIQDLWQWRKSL
T1 sequence (Q61937 whole entry): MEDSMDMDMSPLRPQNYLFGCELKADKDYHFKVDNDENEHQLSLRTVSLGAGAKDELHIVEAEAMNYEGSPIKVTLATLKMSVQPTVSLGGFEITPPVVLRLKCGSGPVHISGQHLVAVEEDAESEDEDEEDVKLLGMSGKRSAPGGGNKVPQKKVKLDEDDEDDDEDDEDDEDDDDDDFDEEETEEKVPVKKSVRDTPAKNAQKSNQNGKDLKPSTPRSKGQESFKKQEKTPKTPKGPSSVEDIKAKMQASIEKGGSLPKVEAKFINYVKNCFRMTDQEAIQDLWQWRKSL
T3 sequence (Q61937 whole entry): as above

Molecule: Nc1ncn([C@@H]2O[C@H](CO)[C@@H](O)[C@H]2O)c(=O)n1 [5-azacytidine]
- NPM1 on the cell surface (OCI-AML3 cells): increased
- binding of anti-NPM1 antibodies to NPM1 on the surface of OCI-AML3 cells ([1]; 40 nM 5-azacytidine): The same effect was observed
- binding between the isolated anti-mutant NPM1 and OCI-AML3 cells ([1]; after only 24 hours of treatment with 5-Aza): substantially enhanced

Molecule: COc1cccc2c1C(=O)c1c(O)c3c(c(O)c1C2=O)C[C@@](O)(C(C)=O)C[C@@H]3O[C@H]1C[C@H](N)[C@H](O)[C@H](C)O1 [daunorubicin]
- antibody binding (cell surface NPM1) compared to controls [2]: no change
- NPM1 on the cell surface (OCI-AML3 cells): increased
- time for which higher NPM1 expression was maintained (OCI-AML3 cells): at least 9 days
- antibody binding (cell surface NPM1) compared to controls [3]: no change
- binding between the isolated anti-WT NPM1 and anti-mutant NPM1 antibody and NPM1 on the surface of OCI-AML3 cells ([1]; 10 nM daunorubicin or 40 nM venetoclax): enhanced binding
- binding of anti-NPM1 antibody (Merck/Sigma anti-B23 #B0556) to cells ([1]; 8 days post-treatment, 10 nM daunorubicin or 40 nM venetoclax): substantially enhanced
- binding of anti-NPM1 antibody (Merck/Sigma anti-B23 #B0556) to cells ([1]; after 48 hours of treatment, 10 nM daunorubicin or 40 nM venetoclax): enhanced

B1: Ab1 anti-NPM1 antibody (antibody, mouse IgG2a, kappa, V domains shown)
VH: EVQLQQSVAELVRPGASVKLSCTASGFNIKNIFVHWVKQRPEQGLEWIGKIDPANDNTKFAPNFQGKAAISADTSSNTAYLQLSSLTSEDTAIYYCASDSSGYDAVDYWGQGTSVTVSS
VL: DIQMTQSPASLSASVGETVTITCRASESVYTYLAWYQQKQGKSPQLLVYNAKTLTEGVPSRFSGSGSGTQFSLRINSLQPEDFGSYYCQHHYGTPYTFGSGTKLEIKR
notes: also called isolated anti-WT NPM1 antibody
- binding result (murine NPM1): binds
- binding result [4]: binds

B2: Ab1 (antibody)
heavy: EVQLQQSVAELVRPGASVKLSCTASGFNIKNIFVHWVKQRPEQGLEWIGKIDPANDNTKFAPNFQGKAAISADTSSNTAYLQLSSLTSEDTAIYYCASDSSGYDAVDYWGQGTSVTVSSAKTTAPSVYPLAPVCGDTTGSSVTLGCLVKGYFPEPVTLTWNSGSLSSGVHTFPAVLQSDLYTLSSSVTVTSSTWPSQSITCNVAHPASSTKVDKKIEPRGPTIKPCPPCKCPAPNLLGGPSVFIFPPKIKDVLMISLSPIVTCVVVDVSEDDPDVQISWFVNNVEVHTAQTQTHREDYNSTLRVVSALPIQHQDWMSGKEFKCKVNNKDLPAPIERTISKPKGSVRAPQVYVLPPPEEEMTKKQVTLTCMVTDFMPEDIYVEWTNNGKTELNYKNTEPVLDSDGSYFMYSKLRVEKKNWVERNSYSCSVVHEGLHNHHTTKSFSRTPGK
light: DIQMTQSPASLSASVGETVTITCRASESVYTYLAWYQQKQGKSPQLLVYNAKTLTEGVPSRFSGSGSGTQFSLRINSLQPEDFGSYYCQHHYGTPYTFGSGTKLEIKRADAAPTVSIFPPSSEQLTSGGASVVCFLNNFYPKDINVKWKIDGSERQNGVLNSWTDQDSKDSTYSMSSTLTLTKDEYERHNSYTCEATHKTSTSPIVKSFNRNEC
- binding to host murine bone marrow cells [5]: without binding
- binding to surface localized NPM1 [6]: capable of binding
- binding to NPM1 on PDX cells [7]: bound
- binding to surface localized NPM1 [8]: capable of binding
